Results: PubChem BioAssay (NCI)
“And” between values parts separate entries of the source, which are not always exact repeats. Equal values may be shown once.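 Cells were grown in 96-well plates and exposed to each compound for 48 hours at five concentrations; endpoints were interpolated linearly between bracketing concentrations, or set to the highest concentration if not reached. The concentration for 50% growth inhibition is given as GI50. At the TGI there is no net growth.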

Legend:
Assay in all cases: growth of human tumour cells (NCI), 48 h
[1] = tested on: IGROV1 ovarian
[2] = tested on: KM12 colon
[3] = tested on: MALME-3M melanoma
[4] = tested on: OVCAR-4 ovarian
[5] = tested on: OVCAR-8 ovarian
[6] = tested on: RPMI-8226 leukemia
[7] = tested on: SK-MEL-5 melanoma
[8] = tested on: SW-620 colon
[9] = tested on: T-47D breast
[10] = tested on: TK-10 renal

Structure (SMILES)	GI50 [1]	TGI [1]	GI50 [2]	TGI [2]	GI50 [3]	TGI [3]	GI50 [4]	TGI [4]	GI50 [5]	TGI [5]	GI50 [6]	TGI [6]	GI50 [7]	TGI [7]	GI50 [8]	TGI [8]	GI50 [9]	TGI [9]	GI50 [10]	TGI [10]
Cc1sc2nc(-c3ccccn3)c(/C=N/N=C(N)N)n2c1C	25.6 µM	> 58.3 µM	7.85 µM	15.6 µM	4.53 µM	9.81 µM	5.15 µM	13.3 µM	6.65 µM	68.1 µM	4230 nM	12.1 µM	3.58 µM	8.13 µM	4500 nM	13.5 µM	3.93 µM	10.2 µM	5.89 µM	11.2 µM
CSc1nc(Cl)c(Br)c(Nc2c[nH]c(=O)[nH]c2=O)n1		19.9 µM		67.8 µM		43.9 µM		37.9 µM		30.4 µM		> 100 µM		42.6 µM		> 100 µM		40 µM		40 µM
Cc1cc(N(CCCNc2ccnc3cc(Cl)ccc23)Cc2cccs2)nc(Cl)n1	2.9 µM	18.9 µM	4.16 µM	17 µM	3.06 µM	13.5 µM	1.69 µM	14.6 µM	4.83 µM	34.9 µM	1430 nM	9.71 µM	1.45 µM	3.15 µM	3450 nM	18.9 µM	1.99 µM	20.6 µM	5.96 µM	20.9 µM
COc1ccc2nc(-c3ccccc3)cc(Nc3ccc(/C(C)=N/O)cc3)c2c1	13.4 µM	> 22 µM	3.74 µM	> 100 µM	2.8 µM	9.92 µM	3.9 µM	> 100 µM	3.02 µM	> 27.5 µM	2160 nM	7.06 µM	2.62 µM	7.57 µM	2720 nM	> 22.1 µM	6.18 µM	> 100 µM	1.63 µM	3.42 µM
CCN(CC)c1ccc(/C=C/C(=O)c2cccc(NS(C)(=O)=O)c2)cc1	> 100 µM	> 100 µM	3.18 µM	> 100 µM	5.79 µM	> 100 µM	6.27 µM	> 100 µM	> 100 µM	> 100 µM	2340 nM	20.8 µM	4.21 µM	> 100 µM	3270 nM	> 100 µM	4.29 µM	> 100 µM	7.53 µM	> 100 µM
CN(C)CCCNC(=O)c1cc2c3ccccc3[nH]c2c2ncccc12	10.9 µM	70.9 µM	19.8 µM	67.3 µM	13 µM	27 µM	21 µM	81.4 µM	12.6 µM	> 100 µM	7420 nM	32.8 µM	13.5 µM	26.6 µM	6340 nM	33.4 µM	19.4 µM	61.2 µM	15.5 µM	> 100 µM
CC(C)[C@@H](C(=O)O[C@@H]1/C=C/C(=O)O[C@@H](C)CCC/C=C/[C@@H]2C[C@H](O)C[C@H]21)[N+](C)(C)C	> 100 µM	> 100 µM	> 100 µM	> 100 µM	> 100 µM	> 100 µM	> 100 µM	> 100 µM	> 100 µM	> 100 µM	> 100000 nM	> 100 µM	> 100 µM	> 100 µM	> 100000 nM	> 100 µM	> 100 µM	> 100 µM	> 100 µM	> 100 µM
CC[C@](O)(C(=O)O)c1cc2n(c(=O)c1CO)Cc1cc3ccccc3nc1-2	0.0299 µM and 0.197 µM		0.132 µM and 0.228 µM and 0.54 µM		0.0642 µM and 0.272 µM	4.75 µM and 4.12 µM and 0.807 µM	0.305 µM and 0.0715 µM	7.5 µM and 0.856 µM	0.0292 µM and 0.0262 µM and 0.0353 µM		6.77 nM and 45.8 nM			0.0383 µM and 0.156 µM and 0.0896 µM	94.8 nM and 71.3 nM and 25 nM	25 µM and 34.1 µM	< 0.0025 µM	0.0755 µM	1.1 µM	4.38 µM and > 24.8 µM
Cc1cc(-c2ccccc2)c(C)n1Cc1ccc(Cl)cc1	5.21 µM	> 100 µM	4.26 µM	> 100 µM	3.85 µM	39.1 µM	9.56 µM	> 100 µM	5.95 µM	> 100 µM	3830 nM	61.6 µM	4.23 µM	66.8 µM	3060 nM	> 100 µM	5.26 µM	> 100 µM	9.66 µM	65.4 µM
O=C1C=C(N2CC2)c2ccccc2C1=O	1.79 µM	3.23 µM	1.78 µM	3.27 µM	1.93 µM	3.39 µM	1.48 µM	2.8 µM	1.46 µM	2.86 µM	1810 nM	5.13 µM	1.6 µM	3.04 µM	1340 nM	2.92 µM	1.88 µM	4.17 µM	2.15 µM	3.64 µM
COc1ccc(C(=O)Nc2ncc(Cc3ccc(F)cc3)s2)cc1	0.0957 µM	97.7 µM	0.0408 µM	6.2 µM	0.0855 µM	> 62.8 µM	1.38 µM	> 100 µM	0.135 µM	> 100 µM	37.3 nM		0.0422 µM	2.26 µM	44.9 nM	> 100 µM	0.06 µM	> 100 µM	4.31 µM	98.3 µM
CC(=O)NNC(=O)c1nn(-c2ccc(Cl)cc2)cc1OC(C)=O	21.5 µM	> 100 µM	43.7 µM	> 100 µM	25.7 µM	> 91.4 µM	79.6 µM	> 100 µM	22.3 µM	> 100 µM	12100 nM	64.3 µM	10.4 µM	> 69.1 µM	23600 nM	> 100 µM	13.7 µM	94.6 µM	15.6 µM	> 100 µM
Cc1cc(C)cc(Nc2nccc(-c3c(-c4ccc(F)cc4)ncn3C3CCNCC3)n2)c1	0.312 µM	1.67 µM	1.74 µM	3.57 µM	1.61 µM	3.39 µM	1.49 µM	3.46 µM	1.66 µM	5.01 µM	2070 nM	5.18 µM	1.75 µM	3.31 µM	1440 nM	3.07 µM	1.42 µM	3.79 µM	0.717 µM	2.95 µM
